Reference: paper PMC5774136, “Alarm pheromone and kairomone detection via bitter taste receptors in the mouse Grueneberg ganglion” (BMC Biology, 2018)

Columns and labels:
Test in all cases: Fura-2 calcium imaging, transfected HEK cells
Type in all cases: cell-based
[1] = molecular target: T1, TAS2R143 (Mus musculus, UniProt Q7TQB9); conditions: 500 uM ligand; agonist; Galpha16-gustducin chimera co-expressed
T1 construct: N-terminal tag of first 39 residues of bovine rhodopsin; pcDNA3.1(+); HEK 293 cells (ATCC CRL-1573); co-expressed human Galpha16 / mouse gustducin C-terminal 44 chimera
T1 sequence (Q7TQB9 1-293): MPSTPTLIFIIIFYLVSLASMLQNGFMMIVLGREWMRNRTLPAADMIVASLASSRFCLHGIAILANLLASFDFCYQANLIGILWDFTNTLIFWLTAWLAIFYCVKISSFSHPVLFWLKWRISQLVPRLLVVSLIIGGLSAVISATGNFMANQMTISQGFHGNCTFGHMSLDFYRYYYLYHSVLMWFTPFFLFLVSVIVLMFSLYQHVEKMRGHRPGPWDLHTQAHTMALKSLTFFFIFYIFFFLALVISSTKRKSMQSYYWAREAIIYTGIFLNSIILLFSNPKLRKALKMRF

[2] = molecular target: T2, TAS2R115 (Mus musculus, UniProt Q7M719); conditions: 100 uM ligand; weak agonist; Galpha16-gustducin chimera co-expressed
T2 construct: N-terminal tag of first 39 residues of bovine rhodopsin; pcDNA3.1(+); HEK 293 cells (ATCC CRL-1573); co-expressed human Galpha16 / mouse gustducin C-terminal 44 chimera
T2 sequence (Q7M719 1-310): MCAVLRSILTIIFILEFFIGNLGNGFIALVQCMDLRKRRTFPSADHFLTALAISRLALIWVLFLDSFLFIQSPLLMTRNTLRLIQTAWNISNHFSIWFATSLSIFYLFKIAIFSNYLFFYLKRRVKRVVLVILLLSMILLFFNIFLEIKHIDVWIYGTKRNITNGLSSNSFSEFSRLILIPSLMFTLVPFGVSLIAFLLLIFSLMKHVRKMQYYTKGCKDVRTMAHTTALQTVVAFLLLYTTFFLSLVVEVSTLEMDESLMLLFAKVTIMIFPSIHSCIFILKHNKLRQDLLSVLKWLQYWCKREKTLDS

[3] = molecular target: T1, TAS2R143; conditions: 100 uM ligand; agonist; Galpha16-gustducin chimera co-expressed
[4] = molecular target: T3, TAS2R131 (Mus musculus, UniProt Q7M708); conditions: 100 uM ligand; weak agonist; Galpha16-gustducin chimera co-expressed
T3 construct: N-terminal tag of first 39 residues of bovine rhodopsin; pcDNA3.1(+); HEK 293 cells (ATCC CRL-1573); co-expressed human Galpha16 / mouse gustducin C-terminal 44 chimera
T3 sequence (Q7M708 1-310): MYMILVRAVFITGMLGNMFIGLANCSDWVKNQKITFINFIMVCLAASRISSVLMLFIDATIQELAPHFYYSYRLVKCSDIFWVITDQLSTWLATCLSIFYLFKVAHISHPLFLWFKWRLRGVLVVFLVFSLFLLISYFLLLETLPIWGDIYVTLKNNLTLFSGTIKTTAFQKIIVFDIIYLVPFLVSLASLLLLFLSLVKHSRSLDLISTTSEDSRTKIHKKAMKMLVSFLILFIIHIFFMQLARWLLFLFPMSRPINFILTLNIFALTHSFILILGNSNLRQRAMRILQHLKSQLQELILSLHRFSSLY

Row | Compound | % of transfected cells responding at 500 uM [1] [%] | % of transfected cells responding at 100 uM [2] | % of transfected cells responding at 100 uM [3] [%] | % of transfected cells responding at 100 uM [4]
1 | 2,4,5-trimethylthiazoline [TMT] | 51 |  |  | 
2 | CCc1cnccn1 [2-EP, 2-ethylpyrazine] |  | ~ 5% | 14 | ~ 5%
3 | CCCC1CCS1 (stereo not drawn) [2-PT, 2-propylthietane] |  |  | 47 | 
4 | CCC(C)C1=NCCS1 (stereo not drawn) [SBT, 2-sec-butylthiazoline] |  |  | 13 | 
